Test results: patent US8859620B2, “Phthalanilate compounds and methods of use” (University of Notre Dame du Lac, priority 2009, dated 2014)
In brackets after ≈: the same amount, converted by molar mass. Where two headings read alike, the source gives them in different places.

Tests used:
[1] = test system: Staphylococcus aureus (COLVA); test: MIC, Table 12; assay type: cell-based
Method: (§1) Table 12 illustrates the results and the minimal inhibitory concentration (MIC) for S. aureus, Enterococcus faecalis, Pseudomonas aeruginosa, Klebsiella pneumonia, and Proteus mirabilis. The inoculum is about 1.5×10^5 CFU/mL. The minimal inhibitory concentrations (MIC) were done in Muller-Hinton II Broth with the exception of Enterococcus faecalis ATCC 29212, which was done in Brain Heart Infusion Broth. The concentration of DMSO at 200 μg/mL was 10%.

[2] = test system: Enterococcus faecalis ATCC 29212; test: MIC, Table 12; assay type: cell-based
Method: as §1

[3] = test system: Staphylococcus aureus NRS100 (COL); test: MIC, Table 12; assay type: cell-based
Method: as §1

[4] = test system: Staphylococcus aureus ATCC 29213; test: MIC, Table 12; assay type: cell-based
Method: as §1

[5] = test system: Staphylococcus aureus NRS1 (Mec^r. Vani); test: MIC, Table 12; assay type: cell-based
Method: as §1

[6] = test system: Escherichia coli ATCC 29194; test: MIC, Table 12; assay type: cell-based; conditions: ATCC29194, Muller-Hinton II Broth
[7] = test system: Klebsiella pneumonia ATCC 33495; test: MIC, Table 12; assay type: cell-based; conditions: Klebsiella pneumoniae, ATCC33495, Muller-Hinton II Broth
Method: as §1

[8] = test system: Pseudomonas aeruginosa ATCC 27853; test: MIC, Table 12; assay type: cell-based; conditions: ATCC27853, Muller-Hinton II Broth
Method: as §1

[9] = test system: Proteus mirabilis ATCC 35659; test: MIC, Table 12; assay type: cell-based; conditions: ATCC35659, Muller-Hinton II Broth
Method: as §1

[10] = target: TEM-1 (class A β-lactamase) (Escherichia coli, UniProt P62593); test: β-Lactamase assay (nitrocefin colour change), TEM-1; assay type: biochemical; conditions: for TEM-1: Table 10, class symbols x/xx/xxx, key not given
Method: (§2) β-Lactamase Assays (TEM-1, P99, and OXA-10): The activity of the compounds of the invention (inhibitors) toward β-lactamases was evaluated using 96 well plates. The reaction mixture included 10 mM sodium phosphate, pH 7.0, 150 mM sodium chloride, 0.01% Triton X-100, 100 μM nitrocefin, 10 nM of β-lactamases (class A: TEM-1; class C: P99, or class D: OXA-10), and variable concentrations of the inhibitors in a total volume of 100 μL. β-Lactamases were pre-incubated with the compounds at room temperature for 5 minutes, and the assay was initiated by the addition of nitrocefin. The inhibition of the enzyme activity by the compounds was determined by monitoring color change (from yellow to red) of nitrocefin after 20 minutes. Stock solutions of the compounds were prepared in dimethyl sulfoxide (DMSO). No more than 5% DMSO was present in assays, unless noted otherwise. B1aR Assay: The surface domain of B1aR (1 μM) was added to each inhibitor (at various concentrations) in 100 mM sodium phosphate, 50 mM sodium bicarbonate, at pH 7.0. The reaction mixtures were incubated at room temperature for 20 minutes. BOCILLIN FL, a fluorogenic ligand, was added to a concentration of 20 μM in a final volume of 20 μL. The mixtures were incubated at 37° C. for 5 minutes, at which point the reactions were quenched by the addition of 15 μL of the SDS sample buffer (125 mM Tris, 4% SDS, 20% glycerol, 2% 2-mercaptoethanol, pH 6.8), and were boiled for 4 minutes. The samples were loaded onto 15% SDS-PAGE, the gel was developed and scanned using a Storm 840® Fluorimager. The fluorescent bands of BOCILLIN FL-labeled B1aR^S were analyzed by Image Quant 5.2 software. PBP2 Assay: The PBP2 assay was performed according to the methods of Villegas-Esterada et al. (J. Am. Chem. Soc. 2008, 130, 9212-9213).

[11] = target: OXA-10 (class D β-lactamase) (Pseudomonas aeruginosa, UniProt P14489); test: β-Lactamase assay (nitrocefin colour change), OXA-10; assay type: biochemical; conditions: for OXA-10: Table 10, class symbols x/xx/xxx, key not given; for IC50: nitrocefin 100 μM, 10 nM enzyme, 5 min pre-incubation, read-out: IC50s OXA-10
Method: as §2

[12] = target: P99 (class C β-lactamase) (Enterobacter cloacae, UniProt P05364); test: β-Lactamase assay (nitrocefin colour change), P99; assay type: biochemical; conditions: for P99: Table 10, class symbols x/xx/xxx, key not given; for IC50: nitrocefin 100 μM, 10 nM enzyme, 5 min pre-incubation, read-out: IC50s P99
Method: as §2

S. aureus NRS100 (Mec^R) = test: MIC against S. aureus NRS100 (Table 14); assay type: cell-based, Staphylococcus aureus; conditions: Staphylococcus aureus, compounds dissolved in DMSO or 1% sodium carbonate, read-out: MIC
Method: The recited compounds were dissolved in DMSO or in 1% sodium carbonate and transferred into micro titer plate to final concentration of 1000 μg/mL.

surface domain of B1aR = surface domain of B1aR (Staphylococcus aureus, UniProt P18357); test: B1aR assay (BOCILLIN FL labeling, SDS-PAGE); assay type: binding, Staphylococcus aureus (MRSA); conditions: Table 10; class symbols x/xx/xxx, key not given
Method: as §2

[13] = test system: methicillin-resistant strains of S. aureus; test: MIC against methicillin-resistant S. aureus (Table 15); assay type: cell-based; conditions: Staphylococcus aureus, dissolved in 100% DMSO, diluted into Mueller Hinton II Broth to final 16 μg/mL
Excerpt: Table 15 illustrates the inhibition of methicillin-resistant strains of S. aureus by selected compounds of the invention.

PBP2a = PBP2a (Staphylococcus aureus, UniProt P07944); test: PBP2 assay (Villegas-Esterada et al.); assay type: biochemical; conditions: Table 10
Method: as §2

[14] = ATCC29212, Enterococcus faecalis ATCC 29212, Brain Heart Infusion Broth, inoculum about 1.5×10^5 CFU/mL, read-out: MIC
[15] = Staphylococcus aureus NRS100 (COL), Muller-Hinton II Broth, read-out: MIC
[16] = ATCC29213, Staphylococcus aureus ATCC 29213, Muller-Hinton II Broth, read-out: MIC
[17] = Staphylococcus aureus NRS1 (Mec^r. Vani), Muller-Hinton II Broth, read-out: MIC

Chain of PBP2a (P07944 whole entry): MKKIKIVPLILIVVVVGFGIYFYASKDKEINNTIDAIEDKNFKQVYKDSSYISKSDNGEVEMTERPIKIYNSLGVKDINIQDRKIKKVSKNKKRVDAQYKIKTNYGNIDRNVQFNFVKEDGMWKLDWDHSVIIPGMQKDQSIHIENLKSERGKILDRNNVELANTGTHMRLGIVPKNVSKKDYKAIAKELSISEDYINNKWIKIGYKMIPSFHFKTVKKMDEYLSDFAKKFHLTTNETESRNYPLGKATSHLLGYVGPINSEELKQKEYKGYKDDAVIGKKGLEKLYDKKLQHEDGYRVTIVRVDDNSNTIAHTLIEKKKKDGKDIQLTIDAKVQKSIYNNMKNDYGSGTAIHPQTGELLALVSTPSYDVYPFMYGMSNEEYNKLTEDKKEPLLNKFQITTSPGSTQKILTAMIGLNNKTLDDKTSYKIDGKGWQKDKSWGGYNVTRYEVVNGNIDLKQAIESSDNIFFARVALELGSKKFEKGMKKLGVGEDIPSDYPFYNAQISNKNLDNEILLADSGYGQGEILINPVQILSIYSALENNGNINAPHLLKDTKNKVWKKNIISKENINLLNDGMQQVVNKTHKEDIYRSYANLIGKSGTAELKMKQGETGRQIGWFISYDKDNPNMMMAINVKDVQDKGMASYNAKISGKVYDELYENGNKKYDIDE
Chain of OXA-10 (class D β-lactamase) (P14489 20-266, species assumed): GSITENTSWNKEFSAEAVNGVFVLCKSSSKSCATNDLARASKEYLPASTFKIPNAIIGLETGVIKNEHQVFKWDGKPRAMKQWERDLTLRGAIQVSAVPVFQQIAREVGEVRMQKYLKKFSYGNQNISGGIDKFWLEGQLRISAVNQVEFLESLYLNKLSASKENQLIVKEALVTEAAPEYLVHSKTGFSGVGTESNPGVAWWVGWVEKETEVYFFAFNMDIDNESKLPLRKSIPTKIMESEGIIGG
Chain of surface domain of B1aR (P18357 331-585): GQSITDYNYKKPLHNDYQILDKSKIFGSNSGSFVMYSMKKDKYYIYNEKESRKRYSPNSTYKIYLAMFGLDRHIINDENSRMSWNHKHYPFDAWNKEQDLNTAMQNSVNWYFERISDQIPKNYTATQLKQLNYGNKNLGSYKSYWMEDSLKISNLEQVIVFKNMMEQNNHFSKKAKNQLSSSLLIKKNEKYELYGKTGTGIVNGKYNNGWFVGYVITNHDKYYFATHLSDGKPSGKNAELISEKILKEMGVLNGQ
Chain of P99 (class C β-lactamase) (P05364 21-381): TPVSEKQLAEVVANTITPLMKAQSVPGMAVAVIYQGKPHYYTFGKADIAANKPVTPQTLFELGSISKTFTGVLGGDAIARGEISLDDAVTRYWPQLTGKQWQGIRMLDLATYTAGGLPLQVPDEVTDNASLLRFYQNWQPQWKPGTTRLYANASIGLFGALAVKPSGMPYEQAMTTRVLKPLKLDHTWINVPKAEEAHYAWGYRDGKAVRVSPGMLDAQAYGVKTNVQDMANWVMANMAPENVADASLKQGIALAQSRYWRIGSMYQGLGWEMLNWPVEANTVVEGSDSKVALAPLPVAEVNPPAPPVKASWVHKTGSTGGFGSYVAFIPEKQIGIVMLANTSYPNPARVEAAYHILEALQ
Chain of TEM-1 (class A β-lactamase) (P62593 24-286 limits assumed): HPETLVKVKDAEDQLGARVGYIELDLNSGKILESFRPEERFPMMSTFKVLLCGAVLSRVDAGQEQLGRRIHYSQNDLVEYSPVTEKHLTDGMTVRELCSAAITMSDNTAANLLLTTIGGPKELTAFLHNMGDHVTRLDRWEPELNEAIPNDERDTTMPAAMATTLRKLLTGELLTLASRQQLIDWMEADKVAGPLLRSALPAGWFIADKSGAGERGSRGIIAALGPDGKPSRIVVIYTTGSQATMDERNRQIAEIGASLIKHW

Compound	MIC ([1]; Staphylococcus aureus) [µg/mL]	MIC [6] [µg/mL]	MIC [7] [µg/mL]	MIC [8] [µg/mL]	MIC [9] [µg/mL]	MIC [2, 14] [µg/mL]	MIC [3, 15] [µg/mL]	MIC [4, 16] [µg/mL]	MIC [5, 17] [µg/mL]	IC50 [10] [µM]	TEM-1 [10]	OXA-10 [11]	IC50 [11] [µM]	P99 [12]	IC50 [12] [µM]	MIC (S. aureus NRS100 (Mec^R)) [µg/mL]	BlaR (surface domain of B1aR)	MIC [13] [µg/mL]	PBP2a* (inhibitory concentration) (PBP2a)	other results
CN[C@H](CC(C)C)C(=O)N[C@H]1C(=O)N[C@@H](CC(N)=O)C(=O)N[C@H]2C(=O)N[C@H]3C(=O)N[C@H](C(=O)N[C@H](C(=O)O)c4cc(O)cc(O)c4-c4cc3ccc4O)[C@H](O)c3ccc(c(Cl)c3)Oc3cc2cc(c3O[C@@H]2O[C@H](CO)[C@@H](O)[C@H](O)[C@H]2O[C@H]2C[C@](C)(N)[C@H](O)[C@H](C)O2)Oc2ccc(cc2Cl)[C@H]1O [Vancomycin, reference compound]	1000 (≈ 690 µM)	–	–	–	–	–	–	–	–	–	–	–	–	–	–	–	–	–	–	MIC ([2]; Enterococcus faecalis, ATCC29212): 4 µg/mL (≈ 2.76 µM); MIC ([3]; Staphylococcus aureus, NRS100): 1 µg/mL (≈ 0.69 µM); MIC ([4]; Staphylococcus aureus, ATCC29213): 1 µg/mL (≈ 0.69 µM); MIC ([5]; Staphylococcus aureus, NRS1): 4 µg/mL (≈ 2.76 µM)
CCCCCCCCOc1ccc(NC(=O)c2c(Br)c(Br)c(Br)c(Br)c2C(=O)O)cc1 [Compound 274]	3 (≈ 4.38 µM)	400 (≈ 584 µM)	200 (≈ 292 µM)	200 (≈ 292 µM)	400 (≈ 584 µM)	100 (≈ 146 µM)	3 (≈ 4.38 µM)	3 (≈ 4.38 µM)	3 (≈ 4.38 µM)	2.4 ± 0.1	xxx	xxx	5.5 ± 0.5	xxx	3.1 ± 0.5	–	–	–	–	–
O=C(O)c1c(Cl)c(Cl)c(Cl)c(Cl)c1C(=O)Nc1ccc(OCc2cccc(OC(F)(F)F)c2)c(Cl)c1 [Compound 419]	–	–	–	–	–	–	–	–	–	2.3 ± 0.1	xxx	xxx	10.8 ± 0.7	xx	13 ± 2	8 (≈ 13.3 µM)	xxx	8 (≈ 13.3 µM)	xxx	–
CCCCCCCCOc1ccc(NC(=O)c2c(Cl)c(Cl)c(Cl)c(Cl)c2C(=O)O)cc1 [Compound 265]	6 (≈ 11.8 µM)	200 (≈ 394 µM)	200 (≈ 394 µM)	200 (≈ 394 µM)	200 (≈ 394 µM)	6 (≈ 11.8 µM)	6 (≈ 11.8 µM)	6 (≈ 11.8 µM)	6 (≈ 11.8 µM)	3.6 ± 0.5	xxx	xxx	9.9 ± 0.8	xxx	10.3 ± 0.3	–	–	–	–	–
O=C(O)c1c(Cl)c(Cl)c(Cl)c(Cl)c1C(=O)Nc1ccc(OCc2ccccc2)c(Cl)c1 [Compound 253]	50 (≈ 96.2 µM)	400 (≈ 770 µM)	200 (≈ 385 µM)	200 (≈ 385 µM)	400 (≈ 770 µM)	200 (≈ 385 µM)	50 (≈ 96.2 µM)	50 (≈ 96.2 µM)	50 (≈ 96.2 µM)	32.3 ± 5.9	xxx	xxx	222 ± 17	xxx	105 ± 8.7	> 16	xx	–	–	–
O=C(O)c1c(Br)c(Br)c(Br)c(Br)c1C(=O)Nc1ccc(OCc2ccccc2)c(Cl)c1 [Compound 239]	25 (≈ 35.8 µM)	400 (≈ 574 µM)	200 (≈ 287 µM)	200 (≈ 287 µM)	400 (≈ 574 µM)	200 (≈ 287 µM)	100 (≈ 143 µM)	25 (≈ 35.8 µM)	50 (≈ 71.7 µM)	–	–	–	–	–	–	–	–	–	–	–
O=C(O)c1c(Br)c(Br)c(Br)c(Br)c1C(=O)Nc1ccc(OCc2cccc(OC(F)(F)F)c2)c(Cl)c1 [Compound 420]	–	–	–	–	–	–	–	–	–	1.6 ± 0.1	xxx	xxx	8.4 ± 1.1	xx	6.9 ± 1.5	8 (≈ 10.2 µM)	xxx	4 (≈ 5.12 µM)	xxx	–
Cc1onc(-c2ccccc2)c1C(=O)N[C@@H]1C(=O)N2[C@@H]1SC(C)(C)[C@@H]2C(=O)O [Oxaxillian, reference compound]	–	–	–	–	–	–	–	–	–	–	–	–	–	–	–	–	–	–	–	MIC ([1]; Staphylococcus aureus (COLVA), Muller-Hinton II Broth): 500 µg/mL (≈ 1250 µM); MIC ([2]; Enterococcus faecalis ATCC 29212, Brain Heart Infusion Broth, inoculum about 1.5×10^5 CFU/mL): 8 µg/mL (≈ 19.9 µM); MIC ([3]; Staphylococcus aureus NRS100 (COL), Muller-Hinton II Broth): 500 µg/mL (≈ 1250 µM); MIC ([4]; Staphylococcus aureus ATCC 29213, Muller-Hinton II Broth): <0.5 µg/mL; MIC ([5]; Staphylococcus aureus NRS1 (Mec^r. Vani), Muller-Hinton II Broth): 500 µg/mL (≈ 1250 µM)
Cc1ccccc1COc1ccc(NC(=O)c2c(Br)c(Br)c(Br)c(Br)c2C(=O)O)cc1Cl [Compound 386]	–	–	–	–	–	–	–	–	–	7.4 ± 1.2	xxx	xxx	31.6 ± 3.5	xxx	15.3 ± 1.6	8 (≈ 11.2 µM)	xxx	16 (≈ 22.5 µM)	xxx	–
O=C(O)c1c(Br)c(Br)c(Br)c(Br)c1C(=O)Nc1ccc(Oc2cc(C(F)(F)F)cc(C(F)(F)F)c2)cc1 [Compound 414]	–	–	–	–	–	–	–	–	–	4.5 ± 0.4	xxx	xxx	19.5 ± 2	xxx	12 ± 0.5	4 (≈ 5.1 µM)	xxx	4 (≈ 5.1 µM)	xxx	–
